The source of these data is US4029811A, “Certain antiinflammatory dihydrobenzofuran and dihydronaphthofuran acetic acid compounds” (SCHIAPPARELLI - Stabilimenti Chimici Farmaceutici Riuniti …, priority 1974, dated 1977).

“Also recorded” adds a separate entry of the source. Structures can show the parent of a compound that is named as a salt.

One data set relates to rat hind paw edema. Briefly: Carrageenin-induced edema assay. As to conditions: po, 3 hours after carrageenin, tested compounds as sodium salts; for inhibition in vivo at 200 mg/kg: 200 mg/Kg/os; for inhibition in vivo at 12.5 mg/kg: 12.5 mg/Kg/os; for inhibition in vivo at 25 mg/kg: 25 mg/Kg/os; for inhibition in vivo at 50 mg/kg: 50 mg/Kg/os; for inhibition in vivo at 100 mg/kg: 100 mg/Kg/os; for inhibition in vivo at 10 mg/kg: 10 mg/Kg/os; for inhibition in vivo at 30 mg/kg: 30 mg/Kg/os; for inhibition in vivo at 90 mg/kg: 90 mg/Kg/os. The class given is in vivo. The protocol:
Paw edema was measured by fluid displacement when the paw was immersed in a cup of mercury.

In another data set the test system is abdominal stretching. Kind of data set: Anti-writhing assay (acetic acid). As to conditions: 200 mg/Kg p.o., 20 minutes before 3% acetic acid i.p.; counted 20 minutes. Type of data set: in vivo, mouse. The protocol:
Male albino Swiss Mice, each weighing 20 to 22 g, were used. The animals were fasted for 18 hours before pharmacological treatment. […] The number of abdominal stretching was counted for 20 minutes following the acetic acid injection.

Data set [1] has as its system experimental polyarthritis. Kind of data set: Experimental polyarthritis assay (modified Freund's adjuvant). As to conditions: for Activity in experimental polyarthritis assay: 14 days, paw volume, FIG. 1. The class given is in vivo, rat. The protocol:
Three groups of 10 Wistar rats were used. […] Pharmacological treatment was carried out for 14 days, while the third group served as control. Paw edema was measured as for the carrageenin-induced edema. Results are reported in FIG. 1 as % increase of paw volume immediately before modified Freund's adjuvant injection.

Data set [2] relates to Wistar rats. Briefly: Long-term toxicity (60 days oral) in Wistar rats. Type of data set: in vivo. The settings on record: 60 mg/kg daily orally. How it is done:
Compound (I) has been tested by employing 40 Wistar rats subdivided into 2 groups of 20 animals (10 male and 10 female). One of the groups (reference group) was fed in conventional manner, while 60 mg/kg daily of the compound on test were administered orally to the animals of the other group. The treatment was continued during 60 days: every 15 days the following aspects were checked: body weight, blood pressure (by incruent method), cardiac frequency, hemochromocytometric examination and urine analysis.
At the end of treatment, all animals have been sacrificed and subjected to further examinations (hemochromocytometric, serum-biochemical, enzymatic, electrolytic and autopsic examination).

In data set [3] the test system is Wistar rats. Kind of data set: Teratogenic studies in Wistar rats. The class given is in vivo. The settings on record: 30 mg/Kg and 60 mg/Kg orally. The protocol: Tests in the attempt of discovering any teratogenic and fetal-toxicity effects have been carried out in conventional manner on Wistar rats, to which compound (I) has been administered orally at dosages of 30 mg/Kg and 60 mg/Kg.

Data set [4] deals with painful osteoarticular processes. Briefly: Clinical tests in patients with painful osteoarticular processes. The class given is in vivo, human. How it is done: 14 patients were treated with a dosage of 100 mg three times daily, during a period of three days; in further seven cases the treatment was 200--300 mg daily during 8-10 days. The remaining four patients received a dosage of 200 mg three times daily during periods of three to five days.

Setting [5] is: case 1, 100 mg three times daily.
The mark [6] stands for this setting: case 1, lumbosacral arthrosis, 100 mg three times daily.

In the case of `CCC1CCc2cc(CC(=O)O)ccc2O1` (stereo not drawn) [(II), 2-ethylchroman-6-yl-acetic acid], in the data set with rat hind paw edema, the inhibition in vivo (usually the drop in the measured response relative to a control, in per cent) at 200 mg/kg is 31%. For the same compound, in the data set with abdominal stretching, the “% Stretching decrease from the control” value was found to be 42%.

In the case of `O=C(O)Cc1ccc2c3c(ccc2c1)OCC3` [(III), 1,2-Dihydronaphtho [2,1-b] furan-7-acetic acid], the inhibition in vivo at 200 mg/kg in the data set on rat hind paw edema is 51%. In addition, the “Activity relative to compound (I)” value in data set [1] (same conditions as for compound (I)) was “quite analogous to the activity of compound (I)”. The “% Stretching decrease from the control” value in the data set with abdominal stretching is reported as 73%.

As to `O=C(O)Cc1ccc2c3c(ccc2c1)OCCC3` [(IV), 1H-2,3-Dihydronaphtho [2,1-b]pyran-8-yl-acetic acid], in the data set with rat hind paw edema, the inhibition in vivo at 200 mg/kg came out at 64%. Besides, the “% Stretching decrease from the control” value in the data set on abdominal stretching was 62%.

For the compound `CCC1Cc2cc(C(C)C(=O)O)ccc2O1` (stereo not drawn) [(VI), 2(2-Ethyl-2,3-dihydrobenzofuran-5-yl)-propionic acid], in the data set with rat hind paw edema, the inhibition in vivo at 12.5 mg/kg came to 19.3%, the inhibition in vivo at 25 mg/kg amounted to 41.6%, the inhibition in vivo at 50 mg/kg is 43.9% and the inhibition in vivo at 100 mg/kg was 59.1%.

For `CCC1CCc2cc(C(C)C(=O)O)ccc2O1` (stereo not drawn) [(VII), 2(2-Ethylchroman-6-yl)-propionic acid], in the data set with rat hind paw edema, the inhibition in vivo at 12.5 mg/kg stood at 28.7%, the inhibition in vivo at 25 mg/kg was determined as 50.2%, the inhibition in vivo at 50 mg/kg was found to be 31.2% and the inhibition in vivo at 100 mg/kg is 45.9%.

With `CCC1Cc2cc(CC(=O)O)ccc2O1` (stereo not drawn) [Compound (I), 2,3-dihydro-2-ethylbenzofuran-5-yl-acetic acid], the Food consumption result with Wistar rats [2] (60 days) was “The food consumption was regular”. Further, the Lethal cases entry in the data set on Wistar rats [2] (60 days) is recorded as “No lethal cases have been observed”. In the data set with Wistar rats [2] (60 days, conclusion), the “Alterations induced by prolonged administration” value was “does not induce biologically relevant alterations”. Further, the “Hemochromocytometric, serum-biochemical, enzymatic, electrolytic and autopsic examination” value in the data set on Wistar rats [2] (at end of 60 days treatment) is recorded as “No significant variations have been observed”. In addition, the “Body weight increase, blood pressure, cardiac frequency, hemochromocytometric examination and urine analysis” value in the data set on Wistar rats [2] (checked every 15 days during 60 days, versus reference group) is given as “No differences have been noted”. The “Pregnancy disturbances and/or toxic effects on fetus” value with Wistar rats [3] is reported as “No. pregnancy disturbances and/or toxic effects on fetus have been observed”. Also, the inhibition in vivo at 10 mg/kg in the data set on rat hind paw edema was 28%. Moreover, the inhibition in vivo at 30 mg/kg in the data set on rat hind paw edema stood at 46%. For the same compound, in the data set on rat hind paw edema, the inhibition in vivo at 90 mg/kg amounted to 58%. Also, the inhibition in vivo at 200 mg/kg with rat hind paw edema is 68%. For the same compound, the “Activity in experimental polyarthritis assay” value in data set [1] (200 mg/Kg p.o.) is on record as “significant activity”. Besides, the “Activity versus reference drug (phenylbutazone)” value in data set [1] (200 mg/Kg p.o., at least in the first 9 days of treatment) is “superior to the reference drug”. The “% Stretching decrease from the control” value in the data set on abdominal stretching was found to be 81%. Further, the Side effects result in data set [4] (25 patients, oral) was “no side effects having been observed”; in data set [4] (setting [5]), “no side effects having been observed”; in data set [4] (case 2, 100 mg three times daily, eight days), “No side effect”; in data set [4] (case 3, 100 mg three times daily, seven days), “No side effect”; in data set [4] (case 4, 100 then 200 mg three times daily) it was “no side effect”; in data set [4] (case 5, 100 mg three times daily, five days), “without any side effect”. Also, the Tolerability result in data set [4] (25 patients, oral) is listed as “always well tolerated”; in data set [4] (setting [5]) it was “exceedingly well tolerated”. Further, the Antalgic-antiinflammatory effect entry in data set [4] (25 patients, oral, overall) is reported as “significant antalgic-antiinflammatory effect”. Further, in data set [4] (setting [6]), the “Clinical response, first day” value is on record as “fair symptomatologic relief”. Also, the “Clinical response, second day” value in data set [4] (setting [6]) is “improvement persists on the second day with an increased possibility for movement and gait”. For the same compound, the “Clinical response, third day” value in data set [4] (setting [6]) was “the painful pattern has almost totally regressed”. Moreover, the Clinical response entry was “clear symptomatologic relief; gait is easier on the 4th and 5th day and mobility of the knee joint is improved; also recorded: Clearly positive clinical appreciation” in data set [4] (case 2, polyarthrosis, 100 mg three times daily, eight days); “The patient reports relief; disappearance of cephalgia, possibility of rotating the cervical column initially blocked by pain; also recorded: almost total regression of algic aggravation” in data set [4] (case 3, cervical arthrosis, 100 mg three times daily, seven days); “satisfactory response of the painful pattern with a progressive reduction in algic symptomatology; also recorded: Appreciably favourable clinical response” in data set [4] (case 4, bilateral coxo-arthrosis, 100 mg three times daily days 1-2, 200 mg three times daily day 3); “good antalgic effect; improved freedom of active and passive movements of the spinal column” in data set [4] (case 5, spinal arthrosis, 100 mg three times daily, five days). The “Antalgic-antiinflammatory effect judged slight” value in data set [4] (five of 25 cases) is recorded as 20%. The “Antalgic-antiinflammatory effect judged good or very good” value in data set [4] (seventeen of 25 cases) came to 68%. The “Antalgic-antiinflammatory effect judged none” value in data set [4] (three of 25 cases) is given as 12%.

Turning to `CC(C)Cc1ccc(C(C)C(=O)O)cc1` (stereo not drawn) [Ibuprofen, 2-(4-isobutyl-phenyl)-propionic acid-sodium salt, reference compound], in the data set with rat hind paw edema, the inhibition in vivo at 12.5 mg/kg worked out at 42.1%, the inhibition in vivo at 25 mg/kg amounted to 38.1%, the inhibition in vivo at 50 mg/kg turned out to be 52.1% and the inhibition in vivo at 100 mg/kg worked out at 46.9%.

In the case of `CCCCC1C(=O)N(c2ccccc2)N(c2ccccc2)C1=O` [Phenylbutazone, reference compound], in the data set on rat hind paw edema, the inhibition in vivo at 10 mg/kg came out at 8%, the inhibition in vivo at 30 mg/kg was determined as 17%, the inhibition in vivo at 90 mg/kg was 20% and the inhibition in vivo at 200 mg/kg turned out to be 42%. For the same compound, the “Activity in experimental polyarthritis assay” value in data set [1] (200 mg/Kg p.o.) was “significant activity”. For the same compound, in the data set on abdominal stretching, the “% Stretching decrease from the control” value is reported as 43%.
